In ChEMBL document CHEMBL1811789, “Synthesis and biological evaluation of (±)-benzhydrol derivatives as potent non-nucleoside HIV-1 reverse transcriptase inhibitors” (Bioorg Med Chem, 2011) one finds selectivity ratio, EC50 and CC50 data, which are given here for 22 compounds.

Data set [1] in a line: Selectivity index, ratio of CC50 for human C8166 cells to EC50 for wild type HIV1 3B. The format is toxicity, cell-based. To be noted: read-out: Ratio CC50/EC50.
Data set [2] deals with Human immunodeficiency virus 1. Put plainly: Antiviral activity against wild type HIV1 3B infected in human C8166 cells assessed as inhibition of viral-induced cytopathogenicity after 3 days by syncytium formation assay. The format is functional, organism-based. The note with it: Human immunodeficiency virus 1, 3B, C8166, 72 h. (Protection from cytopathic effect is a common read-out in antiviral testing.)

The nature of data set [3]: Cytotoxicity against human C8166 cells by MTT assay. In kind it is cell-based.
Data set [4] relates to Human immunodeficiency virus 1. Put plainly: Antiviral activity against […] HIV1 A17 harboring reverse transcriptase K103N and Y181C mutant infected in human C8166 cells assessed as inhibition of viral-induced cytopathogenicity after 3 days by syncytium formation assay. The format is functional, organism-based. To be noted: Human immunodeficiency virus 1, A17, C8166, 72 h.

pEC50: −log10 of the molar value.

The term pEC50 denotes the negative decadic logarithm of the EC50, by convention in mol/L. Broadly, the CC50 is the concentration at which the toxic effect on the cells reaches its halfway point. High values mean better tolerance by the cells, low ones harm at low concentration. For `Cc1cc(S(N)(=O)=O)ccc1NC(=O)COc1ccc(Cl)cc1C(=O)c1cc(Cl)cc(C#N)c1`, in data set [1], the selectivity ratio was over 563000. In addition, the pEC50 in data set [2] is 9.16; in data set [4], 8.85. Moreover, the CC50 in data set [3] is over 387 µM.

`Cc1cc(S(N)(=O)=O)ccc1NC(=O)COc1ccc(Cl)cc1C(O)c1ccc(Cl)cc1Cl` (racemic): in data set [1], the selectivity ratio came out at 13.7. The pEC50 in data set [2] was 5.53; in data set [4], 4.47. In data set [3], this compound yielded a CC50 of 39.9 µM.

Regarding `Cc1cc(S(N)(=O)=O)ccc1NC(=O)COc1ccc(Cl)cc1C(O)c1ccccc1` (racemic), the selectivity ratio in data set [1] amounted to 29.9. The pEC50 in data set [2] is 5.95; in data set [4] it was 4.78. Besides, in data set [3], the CC50 came to 33.4 µM.

Take `Cc1cc(S(N)(=O)=O)ccc1NC(=O)COc1ccc(Cl)cc1C(O)c1ccccc1C` (racemic): the selectivity ratio in data set [1] amounted to 28. The pEC50 in data set [2] was 5.92; in data set [4] it was 4.68. This compound returned a CC50 in data set [3] of 33.9 µM.

Consider `Cc1cccc(C(O)c2cc(Cl)ccc2OCC(=O)Nc2ccc(S(N)(=O)=O)cc2C)c1` (racemic), for which the selectivity ratio in data set [1] turned out to be 69. The figures for the pEC50 in data set [2] and in data set [4] were 6.32 and 5.01, respectively. The compound further came in with a CC50 in data set [3] of 33.1 µM.

Take `Cc1ccc(C(O)c2cc(Cl)ccc2OCC(=O)Nc2ccc(S(N)(=O)=O)cc2C)cc1` (racemic): the selectivity ratio in data set [1] amounted to 59.3. Besides, the pEC50 is 6.19 in data set [2] and 4.87 in data set [4]. The CC50 in data set [3] came out at 38.7 µM.

For the compound `Cc1cc(S(N)(=O)=O)ccc1NC(=O)COc1ccc(Cl)cc1C(O)c1ccccc1Cl` (racemic), in data set [1], the selectivity ratio was determined as 24.6. For the same compound, the negative-log EC50 (pEC50) in data set [2] is 5.89; in data set [4] it was 4.69. It took 32 µM to reach half-maximal cytotoxicity in data set [3] (CC50).

For `Cc1cc(S(N)(=O)=O)ccc1NC(=O)COc1ccc(Cl)cc1C(O)c1cccc(Cl)c1` (racemic), in data set [1], the selectivity ratio was determined as 46.4. Besides, the pEC50 in data set [2] was 6.14; in data set [4], 4.89. In data set [3], this compound registered a CC50 of 33.2 µM.

Consider `Cc1cc(S(N)(=O)=O)ccc1NC(=O)COc1ccc(Cl)cc1C(O)c1cccc(F)c1` (racemic), for which the selectivity ratio in data set [1] worked out at 78.5. Further, the pEC50 in data set [2] was 6.32; in data set [4], 5.18. Besides, in data set [3], the CC50 is 37.6 µM.

With `Cc1cc(S(N)(=O)=O)ccc1NC(=O)COc1ccc(Cl)cc1C(O)c1cccc([N+](=O)[O-])c1` (racemic), in data set [1], the selectivity ratio came out at 313. Further, the figures for the negative-log EC50 (pEC50) in data set [2] and in data set [4] were 6.92 and 5.36, respectively. The CC50 in data set [3] is 36.9 µM.

On to `Cc1cc(S(N)(=O)=O)ccc1NC(=O)COc1ccc(Cl)cc1C(O)c1cccc(C)c1C` (racemic), for which the selectivity ratio in data set [1] came out at 24.1. Moreover, the pEC50 in data set [2] was 5.04; in data set [4], 3.66. The compound also had a CC50 in data set [3] of 218 µM.

With `Cc1ccc(C(O)c2cc(Cl)ccc2OCC(=O)Nc2ccc(S(N)(=O)=O)cc2C)c(C)c1` (racemic), the selectivity ratio in data set [1] stood at 6.18. Also, the results for the pEC50 in data set [2] and in data set [4] were 5.37 and 4.39, respectively. In addition, in data set [3], the CC50 amounted to 26.4 µM.

For the compound `Cc1ccc(C)c(C(O)c2cc(Cl)ccc2OCC(=O)Nc2ccc(S(N)(=O)=O)cc2C)c1` (racemic), in data set [1], the selectivity ratio amounted to 43.7. Besides, the pEC50 is 6.09 in data set [2] and 4.84 in data set [4]. In addition, half-maximal cytotoxicity in data set [3] (CC50) was put at 35.5 µM.

For the compound `Cc1cc(C)cc(C(O)c2cc(Cl)ccc2OCC(=O)Nc2ccc(S(N)(=O)=O)cc2C)c1` (racemic), in data set [1], the selectivity ratio came out at 166. Besides, the pEC50 in data set [2] is 6.74; in data set [4], 5.68. In data set [3], this compound yielded a half-maximal cytotoxic concentration (CC50) of 29.4 µM.

In the case of `Cc1cc(S(N)(=O)=O)ccc1NC(=O)COc1ccc(Cl)cc1C(O)c1cc(Cl)ccc1Cl` (racemic), in data set [1], the selectivity ratio is 34.2. Moreover, the pEC50 is 5.97 in data set [2] and 5.02 in data set [4]. The same compound returned a CC50 in data set [3] of 36.2 µM.

On to `Cc1cc(S(N)(=O)=O)ccc1NC(=O)COc1ccc(Cl)cc1C(O)c1ccc(Cl)c(Cl)c1` (racemic), for which, in data set [1], the selectivity ratio worked out at 11.2. The pEC50 in data set [2] is 5.67; in data set [4], 4.50. Besides, the CC50 in data set [3] was found to be 24 µM.

For the compound `Cc1cc(S(N)(=O)=O)ccc1NC(=O)COc1ccc(Cl)cc1C(O)c1cc(Cl)cc(Cl)c1` (racemic), the selectivity ratio in data set [1] came out at 12.4. Besides, the results for the pEC50 in data set [2] and in data set [4] were 5.97 and 5.02, respectively. Moreover, in data set [3], the midpoint of cytotoxicity, the CC50, lay at 13.1 µM.

As to `Cc1cc(S(N)(=O)=O)ccc1NC(=O)COc1ccc(Cl)cc1C(O)c1cc(Cl)cc(Br)c1` (racemic), the selectivity ratio in data set [1] stood at 42.4. In addition, the pEC50 is 6.27 in data set [2] and 5.11 in data set [4]. Further, the CC50 in data set [3] came to 22.9 µM.

As for `Cc1cc(S(N)(=O)=O)ccc1NC(=O)COc1ccc(Cl)cc1C(O)c1cc(Cl)cc(C#N)c1` (racemic), the selectivity ratio in data set [1] was determined as 80.8. The pEC50 is 6.41 in data set [2] and 5.16 in data set [4]. Moreover, in data set [3], the CC50 was 31.6 µM.

As for `Cc1cc(S(N)(=O)=O)ccc1NC(=O)COc1ccc(Cl)cc1C(O)c1cccc2ccccc12` (racemic), the selectivity ratio in data set [1] was 80.1. Besides, the pEC50 is 6.41 in data set [2] and 5.07 in data set [4]. The compound also came in with a CC50 in data set [3] of 31.1 µM.

As for `Cc1cc(S(N)(=O)=O)ccc1NC(=O)COc1ccc(Cl)cc1C(O)c1ccc2ccccc2c1` (racemic), in data set [1], the selectivity ratio came out at 14.3. The negative-log EC50 (pEC50) was 5.96 in data set [2] and 4.97 in data set [4]. Moreover, the 50% cytotoxic concentration (CC50) in data set [3] amounted to 15.7 µM.

As to `Cc1cn([C@H]2C[C@H](N=[N+]=[N-])[C@@H](CO)O2)c(=O)[nH]c1=O` [ZIDOVUDINE], the selectivity ratio in data set [1] came out at 422000. The pEC50 in data set [4] is 7.64.
